Data: patent US8513270B2, “Substituted heterocycles as Janus kinase inhibitors” (Incyte Corporation, priority 2006, dated 2013)
Where a name gives a salt, the structure may show the parent alone.

Columns and labels:
[1] = test system: JAK2_INA61 (cancer cell line dependent on cytokines and JAK/STAT signal transduction); assay: Cellular assay: viability of cytokine-dependent cancer cell line (CellTiter-Glo); assay type: cell-based; conditions: 72 hours, read-out: EXAMPLE B JAK2_INA61 IC50
Procedure: One or more compounds herein were tested for inhibitory activity of JAK targets according to at least one of the following cellular assays.
Compounds were added to the cells in DMSO/media (final concentration 0.2% DMSO) and incubated for 72 hours at 37° C., 5% CO2. The effect of compound on cell viability was assessed using the CellTiter-Glo Luminescent Cell Viability Assay (Promega) followed by TopCount (Perkin Elmer, Boston, Mass.) quantitation. Potential off-target effects of compounds were measured in parallel using a non-JAK driven cell line with the same assay readout. […] All experiments were performed in duplicate.

[2] = molecular target: T1, human JAK2 (a.a. 828-1132) (Homo sapiens, UniProt O60674); assay: In vitro JAK kinase assay (HTRF), JAK2; assay type: biochemical; conditions: JAK2, 30 μM ATP; read-out: EXAMPLE A HTS-JAK2 HTRF-2 IC50
T1 construct: JAK2 (a.a. 828-1132); His tag (N); made in house; host or cells: insect cells (baculovirus)
T1 sequence (O60674 828-1132): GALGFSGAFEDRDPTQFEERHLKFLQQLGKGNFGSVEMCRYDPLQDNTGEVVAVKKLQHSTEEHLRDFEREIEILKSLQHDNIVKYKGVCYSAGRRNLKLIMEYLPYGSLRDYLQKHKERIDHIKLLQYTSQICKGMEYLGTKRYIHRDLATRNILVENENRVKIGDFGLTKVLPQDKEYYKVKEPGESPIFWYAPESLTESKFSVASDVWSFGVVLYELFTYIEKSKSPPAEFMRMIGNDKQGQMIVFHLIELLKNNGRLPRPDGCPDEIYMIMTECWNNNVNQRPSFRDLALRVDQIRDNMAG
Procedure: (§1) Compounds herein were tested for inhibitory activity of JAK targets according to the following in vitro assay described in Park et al., Analytical Biochemistry 1999, 269, 94-104. The catalytic domains of human JAK1 (a.a. 837-1142), JAK2 (a.a. 828-1132) and JAK3 (a.a. 781-1124) with an N-terminal His tag were expressed using baculovirus in insect cells and purified. The catalytic activity of JAK1, JAK2 or JAK3 was assayed by measuring the phosphorylation of a biotinylated peptide. The phosphorylated peptide was detected by homogenous time resolved fluorescence (HTRF). IC50s of compounds were measured for each kinase in the reactions that contain the enzyme, ATP and 500 nM peptide in 50 mM Tris (pH 7.8) buffer with 100 mM NaCl, 5 mM DTT, and 0.1 mg/mL (0.01%) BSA. The ATP concentration in the reactions was 90 μM for JAK1, 30 μM for JAK2 and 3 μM for JAK3. Reactions were carried out at room temperature for 1 hr and then stopped with 20 μL 45 mM EDTA, 300 nM SA-APC, 6 nM Eu—Py20 in assay buffer (Perkin Elmer, Boston, Mass.). Binding to the Europium labeled antibody took place for 40 minutes and HTRF signal was measured on a Fusion plate reader (Perkin Elmer, Boston, Mass.).

[3] = molecular target: T2, human JAK3 (a.a. 781-1124) (Homo sapiens, UniProt P52333); assay: In vitro JAK kinase assay (HTRF), JAK3; assay type: biochemical; conditions: JAK3, 3 μM ATP; read-out: EXAMPLE A JAK2-JAK3 HTRF-2 IC50
T2 construct: JAK3 (a.a. 781-1124); His tag (N); made in house; host or cells: insect cells (baculovirus)
T2 sequence (P52333 781-1124): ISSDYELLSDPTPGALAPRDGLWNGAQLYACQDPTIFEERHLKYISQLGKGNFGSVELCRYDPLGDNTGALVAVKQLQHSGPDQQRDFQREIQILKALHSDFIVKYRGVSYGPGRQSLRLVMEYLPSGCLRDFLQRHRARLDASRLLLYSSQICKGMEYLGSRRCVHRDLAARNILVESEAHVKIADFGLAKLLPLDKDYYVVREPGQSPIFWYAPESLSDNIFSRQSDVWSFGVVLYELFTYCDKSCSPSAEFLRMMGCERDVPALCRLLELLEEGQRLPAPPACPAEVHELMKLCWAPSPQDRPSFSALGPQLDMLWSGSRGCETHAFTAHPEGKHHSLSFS
Procedure: as §1

[4] = molecular target: T3, human JAK1 (a.a. 837-1142) (Homo sapiens, UniProt P23458); assay: In vitro JAK kinase assay (HTRF), JAK1; assay type: biochemical; conditions: JAK1, 90 μM ATP; read-out: EXAMPLE A JAK2-JAK1 HTRF-2 IC50
T3 construct: human JAK1 (a.a. 837-1142); His tag (N); made in house; host or cells: insect cells (baculovirus)
T3 sequence (P23458 849-1154): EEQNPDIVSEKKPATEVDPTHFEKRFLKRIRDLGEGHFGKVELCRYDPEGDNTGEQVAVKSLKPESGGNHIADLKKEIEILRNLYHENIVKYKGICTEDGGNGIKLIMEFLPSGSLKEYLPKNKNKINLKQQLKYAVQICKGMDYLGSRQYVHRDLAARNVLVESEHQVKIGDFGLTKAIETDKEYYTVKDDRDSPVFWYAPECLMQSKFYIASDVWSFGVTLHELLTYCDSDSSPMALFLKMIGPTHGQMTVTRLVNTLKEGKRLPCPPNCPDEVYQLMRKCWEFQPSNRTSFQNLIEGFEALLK
Procedure: as §1

[5] = molecular target: TF1-BCRABL1 cells (Homo sapiens, UniProt P00519); assay: ABL1 cell based assay: viability of ABL1-dependent cell line (CellTiter-Glo); conditions: 72 hours, cell viability; read-out: EXAMPLE F JAK2-TF1-BCRABL1 IC50
Sequence of TF1-BCRABL1 cells (P00519 whole entry, change not shown): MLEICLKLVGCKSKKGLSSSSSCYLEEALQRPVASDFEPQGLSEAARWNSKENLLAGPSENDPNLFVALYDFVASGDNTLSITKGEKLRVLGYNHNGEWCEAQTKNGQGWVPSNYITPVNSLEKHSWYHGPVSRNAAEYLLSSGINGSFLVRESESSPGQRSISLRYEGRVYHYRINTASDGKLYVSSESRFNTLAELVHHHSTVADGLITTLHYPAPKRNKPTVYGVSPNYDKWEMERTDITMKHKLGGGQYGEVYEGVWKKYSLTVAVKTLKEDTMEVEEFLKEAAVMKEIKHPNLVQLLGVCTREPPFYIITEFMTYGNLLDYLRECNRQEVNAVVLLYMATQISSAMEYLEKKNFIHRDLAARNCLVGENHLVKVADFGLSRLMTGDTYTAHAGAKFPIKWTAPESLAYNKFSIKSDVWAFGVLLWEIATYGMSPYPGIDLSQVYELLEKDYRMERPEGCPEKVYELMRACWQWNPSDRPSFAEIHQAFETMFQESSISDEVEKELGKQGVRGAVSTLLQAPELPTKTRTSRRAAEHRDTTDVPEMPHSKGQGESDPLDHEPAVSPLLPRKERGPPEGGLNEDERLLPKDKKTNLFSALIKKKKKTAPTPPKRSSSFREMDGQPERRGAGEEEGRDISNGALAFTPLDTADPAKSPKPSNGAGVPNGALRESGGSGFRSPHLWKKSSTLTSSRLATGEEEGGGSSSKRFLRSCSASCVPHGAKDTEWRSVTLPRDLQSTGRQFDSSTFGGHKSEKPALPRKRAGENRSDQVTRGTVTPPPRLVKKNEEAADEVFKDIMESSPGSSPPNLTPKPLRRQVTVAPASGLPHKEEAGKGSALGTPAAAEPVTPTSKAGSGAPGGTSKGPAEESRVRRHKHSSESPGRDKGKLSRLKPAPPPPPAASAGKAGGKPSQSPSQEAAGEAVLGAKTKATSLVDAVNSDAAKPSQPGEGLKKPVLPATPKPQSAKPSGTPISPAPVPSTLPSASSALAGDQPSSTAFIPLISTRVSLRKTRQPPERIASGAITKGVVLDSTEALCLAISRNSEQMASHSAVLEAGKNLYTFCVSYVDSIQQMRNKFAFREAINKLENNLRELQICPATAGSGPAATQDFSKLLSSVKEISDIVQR
Procedure: One or more compounds herein were tested for inhibitory activity of ABL1 targets according to at least one of the following cellular assays.
Cancer cell lines dependent on ABL1 kinase activity for proliferation and/or survival were plated at 3000 cells per well (96 well plate format) in RPMI 1640, and 10% FBS. Compounds were added to the cells in DMSO/media (final concentration 0.2% DMSO) and incubated for 72 hours at 37° C., 5% CO2. The effect of compound on cell viability was assessed using the CellTiter-Glo Luminescent Cell Viability Assay (Promega) followed by TopCount (Perkin Elmer, Boston, Mass.) quantitation. ABL1-dependent cell lines can include those naturally dependent on ABL1 activity or those engineered to be dependent on ABL1 activity (e.g. BaF/3 cells). The latter can be generated using wild-type ABL1 or mutant ABL1 (such as T315I ABL1) so that the activity of compounds can be assessed against different variants of the ABL1 kinase. Potential off-target effects of compounds were measured in parallel using a non-ABL1 driven cell line with the same assay readout. […] All experiments were performed in duplicate or greater.

SMILES | IC50 [1] [nM] | IC50 [2] [nM] | IC50 [3] [nM] | IC50 [4] [nM] | GI50 [5] [nM]
Cc1ccc(NC(=O)c2cccc(F)c2)cc1-c1ccc2c(c1)[nH]c1ncncc12 [Example 6, 3-fluoro-N-[4-methyl-3-(9H-pyrimido[4,5-b]indol-7-yl)-phenyl]benzamide] | 500 to 1000 | ≤ 500 | ≤ 500 | ≤ 500 | ≤ 500
Cc1cn(-c2cc(C(=O)Nc3ccc(C)c(-c4ccc5c(c4)[nH]c4ncncc45)c3)cc(C(F)(F)F)c2)cn1 [Example 2, 3-(4-Methyl-1H-imidazol-1-yl)-N-[4-methyl-3-(9H-pyrimido[4,5-b]indol-7-yl)-phenyl]-5-(trifluoromethyl)benzamide bis(trifluoroacetate)] | 500 to 1000 | ≤ 500 | ≤ 500 | ≤ 500 | ≤ 500
O=C(Nc1cccc(-c2ccc3c(c2)[nH]c2ncncc23)c1)c1cccc(C(F)(F)F)c1 [Example 14, N-[3-(9H-pyrimido[4,5-b]-indol-7-yl)phenyl]-3-(trifluoro-methyl)benzamide] | > 1000 | ≤ 500 | > 1000 | ≤ 500 | 500 to 1000
Cc1ccc(NC(=O)c2cc(C(F)(F)F)cc(Cl)c2F)cc1-c1ccc2[nH]c3ncncc3c2c1 [Example 46, 3-chloro-2-fluoro-N-[4-methyl-3-(9H-pyrimido[4,5-b]indol-6-yl)phenyl]-5-(trifluoromethyl)-benzamide] | > 1000 | ≤ 500 | > 1000 | ≤ 500 | ≤ 500
COc1cccc(C(=O)Nc2ccc(C)c(-c3ccc4c(c3)[nH]c3ncncc34)c2)c1 [Example 11, 3-methoxy-N-[4-methyl-3-(9H-pyrimido[4,5-b]indol-7-yl)-phenyl]benzamide] | > 1000 | 500 to 1000 | ≤ 500 | ≤ 500 | ≤ 500
Cc1ccc(NC(=O)Nc2cccc(C(F)(F)F)c2)cc1-c1ccc2[nH]c3ncncc3c2c1 [Example 48, N-[4-Methyl-3-(9H-pyrimido[4,5-b]indol-6-yl)phenyl]-N′-[3-(trifluoromethyl)-phenyl]urea] | 500 to 1000 | > 1000 | 500 to 1000 | ≤ 500 | ≤ 500
Cc1ccc(C(=O)NCc2cccc(C(F)(F)F)c2)cc1-c1ccc2c(c1)[nH]c1ncncc12 [Example 56, 4-methyl-3-(9H-pyrimido-[4,5-b]indol-7-yl)-N-[3-(trifluoromethyl)benzyl]-benzamide] | > 1000 | > 1000 | ≤ 500 | > 1000 | ≤ 500
Cc1cn(-c2cc(NC(=O)c3ccc(C)c(-c4ccc5c(c4)[nH]c4ncncc45)c3)cc(C(F)(F)F)c2)cn1 [Example 62, 4-methyl-N-[3-(4-methyl-1H-imidazol-1-yl)-5-(trifluoro-methyl)phenyl]-3-(9H-pyrimido[4,5-b]indol-7-yl)-benzamide] | 500 to 1000 | ≤ 500 | ≤ 500 | ≤ 500 | ≤ 500
Cc1ccc(NC(=O)c2cccc(S(F)(F)(F)(F)F)c2)cc1-c1ccc2c(c1)[nH]c1ncncc12 [Example 16, N-[4-methyl-3-(9H-pyrimido-[4,5-b]indol-7-yl)phenyl]-3-(pentafluoro-λ(6)-sulfanyl)-benzamide] | 500 to 1000 | ≤ 500 | ≤ 500 | ≤ 500 | ≤ 500
Cc1ccc(NC(=O)c2cc(C(F)(F)F)ccc2C(F)(F)F)cc1-c1ccc2c(c1)[nH]c1ncncc12 [Example 7, N-[4-methyl-3-(9H-pyrimido[4,5-b]indol-7-yl)phenyl]-2,5-bis(trifluoromethyl)benzamide] | > 1000 | > 1000 | ≤ 500 | ≤ 500 | 500 to 1000
Cc1ccc(C(=O)N[C@H](C)c2ccccc2)cc1-c1ccc2c(c1)[nH]c1ncncc12 [Example 63, 4-methyl-N-[(1R)-1-phenylethyl]-3-(9H-pyrimido[4,5-b]indol-7-yl)benzamide] | > 1000 | > 1000 | 500 to 1000 | > 1000 | 500 to 1000
Cc1ccc(NC(=O)c2cccc(C(F)(F)F)c2)cc1-c1ccc2c(c1)[nH]c1ncncc12 [Example 1, N-[4-Methyl-3-(9H-pyrimido[4,5-b]indol-7-yl)phenyl]-3-(trifluoromethyl)benzamide trifluoroacetate] | ≤ 500 | ≤ 500 | ≤ 500 | ≤ 500 | ≤ 500
Cc1ccc(NC(=O)c2ccc(F)c(C(F)(F)F)c2)cc1-c1ccc2[nH]c3ncncc3c2c1 [Example 42, 4-fluoro-N-[4-methyl-3-(9H-pyrimido[4,5-b]indol-6-yl)-phenyl]-3-(trifluoromethyl)-benzamide] | > 1000 | ≤ 500 | 500 to 1000 | ≤ 500 | ≤ 500
Cc1ccc(NC(=O)c2ccccc2C(F)(F)F)cc1-c1ccc2c(c1)[nH]c1ncncc12 [Example 12, N-[4-methyl-3-(9H-pyrimido-[4,5-b]indol-7-yl)phenyl]-2-(trifluoromethyl)benzamide] | > 1000 | > 1000 | ≤ 500 | ≤ 500 | 500 to 1000
Cc1ccc(NC(=O)c2cc(NCCN(C)C)cc(C(F)(F)F)c2)cc1-c1ccc2c(c1)[nH]c1ncncc12 [Example 38, 3-{[2-(dimethylamino)ethyl]-amino}-N-[4-methyl-3-(9H-pyrimido [4,5-b]indol-7-yl)-phenyl]-5-(trifluoromethyl) benzamide] | 500 to 1000 | ≤ 500 | ≤ 500 | ≤ 500 | ≤ 500
Cc1ccc(NC(=O)c2cc(F)cc(C(F)(F)F)c2)cc1-c1ccc2c(c1)[nH]c1ncncc12 [Example 19, 3-Fluoro-N-[4-methyl-3-(9H-pyrimido[4,5-b]indol-7-yl)phenyl]-5-(trifluoro-methyl)benzamide] | ≤ 500 | ≤ 500 | ≤ 500 | ≤ 500 | ≤ 500
Cc1ccc(NC(=O)c2cccc(Cl)c2)cc1-c1ccc2c(c1)[nH]c1ncncc12 [Example 15, 3-chloro-N-[4-methyl-3-(9H-pyrimido[4,5-b]indol-7-yl)-phenyl]benzamide] | ≤ 500 | ≤ 500 | ≤ 500 | ≤ 500 | ≤ 500
Cc1ccc(NC(=O)c2cc(F)cc(C(F)(F)F)c2)cc1-c1ccc2[nH]c3ncncc3c2c1 [Example 43, 3-fluoro-N-[4-methyl-3-(9H-pyrimido[4,5-b]indol-6-yl)-phenyl]-5-(trifluoromethyl)-benzamide] | 500 to 1000 | ≤ 500 | ≤ 500 | > 1000 | ≤ 500
Cc1ccc(NC(=O)c2cccc(C(F)(F)F)c2F)cc1-c1ccc2c(c1)[nH]c1ncncc12 [Example 3, 2-fluoro-N-[4-methyl-3-(9H-pyrimido[4,5-b]indol-7-yl)-phenyl]-3-(trifluoromethyl)-benzamide] | ≤ 500 | ≤ 500 | ≤ 500 | ≤ 500 | ≤ 500
